# Test results: publication PMC8795197, “Safety and activity of WX-0593 (Iruplinalkib) in patients with ALK- or ROS1-rearranged advanced non-small cell lung cancer: a phase 1 dose-escalation and dose-expansion trial” (Signal Transduction and Targeted Therapy, 2022)
# Where two headings read alike, the source gives them in different places.
# Assay: Repeated-dose toxicity study, 28 days oral gavage
# Format: in vivo, rats
# Settings: for AUC(0-t): po, read-out: AUC0-24h (Day 28)
# Protocol: The severely toxic dose in 10% of the animals (STD10) in rodents was > 30 mg/kg. At a dose of 10 mg/kg/day, AUC0-24h (Day 28) was 16800 h·ng/mL in males and 17300 h·ng/mL in females, which is 4.5 times and 4.7 times of the exposure at the effective dose in mice (2.5 mg/kg, AUC0-24h: 3700 h·ng/mL). At a dose of 30 mg/kg/day, AUC0-24h (Day 28) was 27100 h·ng/mL in males and 42400 h·ng/mL in females, which is 7.3 times and 11.5 times of the exposure at the effective dose in nude mice (2.5 mg/kg, AUC0-24h: 3700 h·ng/mL).
smiles,measurement,setting,value
COc1cc(N2CCC3(CCN(C)CC3)CC2)ccc1Nc1ncc(Cl)c(Nc2ccccc2P(C)(C)=O)n1 [WX-0593],exposure as multiple of that at the effective dose in mice,"10 mg/kg/day, females",4.7 times
same,exposure as multiple of that at the effective dose in mice,"10 mg/kg/day, males",4.5 times
same,exposure as multiple of that at the effective dose in nude mice,"30 mg/kg/day, females",11.5 times
same,exposure as multiple of that at the effective dose in nude mice,"30 mg/kg/day, males",7.3 times
same,human equivalent dose,"1/10 of rat STD10, 60 kg/person",29 mg/person
same,severely toxic dose in 10% of the animals (STD10),28 days oral gavage,> 30 mg/kg
same,AUC(0-t),"female, rat, in vivo, 10 mg/kg/day, females",17300 ng·h/mL
same,AUC(0-t),"female, rat, in vivo, 30 mg/kg/day, females",42400 ng·h/mL
same,AUC(0-t),"male, rat, in vivo, 10 mg/kg/day, males",16800 ng·h/mL
same,AUC(0-t),"male, rat, in vivo, 30 mg/kg/day, males",27100 ng·h/mL
same,NOAEL at 28 days,"rat, in vivo, 28 days oral gavage",10 mg/kg/day
